In general, ED50 refers to the midpoint of the dose-response relation. One may read the LD50 as the dose expected to kill half of the subjects tested. Higher therefore signals lower toxicity.

Experimental findings from ChEMBL document CHEMBL1122811, “Structure-activity studies on antidepressant 2,2-diarylethylamines” (J Med Chem, 1984) are described below.

The structures appear in SMILES notation. Active and inactive are the calls of the source.

For data set [1], the system named is Mus musculus. In words: Compound was evaluated for antidepressant activity measured by tetrabenazine (TBZ) induced ptosis in mice after 30 mg/kg intraperitoneal administration; inactive. It is filed as functional, organism-based. The arrangement: dose 30 mg/kg.
The test system of data set [2] is Mus musculus. In words: Compound was evaluated for antidepressant activity measured by tetrabenazine (TBZ) induced exploratory activity in mice after 30 mg/kg intraperitoneal administration; inactive. It is filed as functional, organism-based. On the set-up: dose 30 mg/kg.
In data set [3] the test system is Mus musculus. In words: Compound was evaluated for antidepressant activity measured by tetrabenazine (TBZ) induced exploratory activity in mice after 30 mg/kg intraperitoneal administration; Inactive. In kind it is functional, organism-based. The arrangement: dose 30 mg/kg.
Data set [4] deals with Mus musculus. In words: Compound was evaluated for antidepressant activity measured by tetrabenazine (TBZ) induced ptosis in mice after 10 mg/kg intraperitoneal administration; Inactive. It is filed as functional, organism-based. On the set-up: dose 10 mg/kg.
The species entered for data set [5] is Mus musculus. Briefly: Antidepressant activity measured by effects on […] (TBZ) inhibited exploratory activity. In kind it is functional.
The subject of data set [6] is Mus musculus. Briefly: Antidepressant activity measured by tetrabenazine (TBZ) induced ptosis in mice after intraperitoneal administration. It is filed as functional. The conditions noted are these: ip.
For data set [7], the system named is Mus musculus. Briefly: Compound was evaluated for antidepressant activity measured by tetrabenazine (TBZ) induced ptosis in mice after 60 mg/kg intraperitoneal administration; inactive. It is filed as functional, organism-based. The arrangement: dose 60 mg/kg.
Data set [8] deals with Mus musculus. Briefly: Compound was evaluated for antidepressant activity measured by tetrabenazine (TBZ) induced exploratory activity in mice after 60 mg/kg intraperitoneal administration; inactive. In kind it is functional, organism-based. On the set-up: dose 60 mg/kg.
Data set [9] relates to Mus musculus. Briefly: Antidepressant activity measured by maximal electroshock seizure threshold (MEST) assay in TBZ treated mice after ip administration. In kind it is functional. Background: Protection in the maximal electroshock model is a classic sign of anticonvulsant action.
The subject of data set [10] is Mus musculus. Briefly: Antidepressant activity measured by maximal electroshock seizure threshold (MEST) assay in untreated mice after ip administration. It is filed as functional.
The test system of data set [11] is Mus musculus. Briefly: Compound was evaluated for antidepressant activity measured by tetrabenazine (TBZ) induced ptosis in mice after intraperitoneal administration; Lethal at 60 Mg/kg. It is filed as functional. As to conditions: ip.
The subject of data set [12] is Mus musculus. Briefly: Compound was evaluated for antidepressant activity measured by tetrabenazine (TBZ) induced exploratory activity in mice after 60 mg/kg intraperitoneal administration; Inactive. It is filed as functional, organism-based. The arrangement: dose 60 mg/kg.
Data set [13] can be described thus: Compound was evaluated for 50% lethal dose in mice; LD50 range is 30-100. In kind it is ADME, organism-based. As to conditions: mouse, in vivo.
A short description of data set [14]: Compound was evaluated for 50% lethal dose in mice; LD50 range 30-100 mg/kg. In kind it is ADME, organism-based. As to conditions: mouse, in vivo.
Data set [15] deals with Mus musculus. Briefly: Compound was evaluated for antidepressant activity measured by tetrabenazine (TBZ) induced ptosis in mice after 30 mg/kg intraperitoneal administration. In kind it is functional. As to conditions: ip.
In data set [16] the test system is Mus musculus. In words: Compound was evaluated for antidepressant activity measured by tetrabenazine (TBZ) induced exploratory activity in mice after 30 mg/kg intraperitoneal administration. The conditions noted are these: ip. In kind it is functional.
A short description of data set [17]: Compound was evaluated for 50% lethal dose in mice; LD50 range 100-300 mg/kg. In kind it is ADME, organism-based. The conditions noted are these: mouse, in vivo.
Data set [18] in a line: Compound was evaluated for 50% lethal dose in mice; LD50 range is 100-300. The conditions noted are these: mouse, in vivo. In kind it is ADME, organism-based.
Data set [19] relates to Mus musculus. In words: Compound was evaluated for antidepressant activity measured by tetrabenazine (TBZ) induced ptosis in mice after 30 mg/kg intraperitoneal administration; Inactive. In kind it is functional, organism-based. The arrangement: dose 30 mg/kg.
Data set [20] relates to Mus musculus. Briefly: dl form was evaluated for antidepressant activity measured by tetrabenazine (TBZ) induced ptosis in mice after intraperitoneal administration. It is filed as functional. The conditions noted are these: ip.
In data set [21] the test system is Mus musculus. In words: Meso form was evaluated for antidepressant activity measured by tetrabenazine (TBZ) induced ptosis in mice after intraperitoneal administration (Two diastereomers (7/6) were present). In kind it is functional. As to conditions: ip.
Data set [22] deals with Mus musculus. Briefly: dl form was evaluated for antidepressant activity measured by tetrabenazine (TBZ) induced exploratory activity in mice after intraperitoneal administration. It is filed as functional. The conditions noted are these: ip.
The subject of data set [23] is Mus musculus. Briefly: Meso form was evaluated for antidepressant activity measured by tetrabenazine (TBZ) induced exploratory activity in mice after intraperitoneal administration. It is filed as functional. As to conditions: ip.
A short description of data set [24]: Compound was evaluated for 50% lethal dose in mice; LD50 range […]-1000 mg/kg. In kind it is ADME, organism-based. As to conditions: mouse, in vivo.

For the compound `OCCN(CCO)CC(c1cccs1)c1cccs1`, the ED50 result in the data set with Mus musculus [1] and in the data set with Mus musculus [2] was “inactive” each time.

`NCC(F)(c1ccccc1)c1ccccc1`: the ED50 entry in the data set with Mus musculus [3] and with Mus musculus [4] was “inactive” throughout.

Take `OCCN(CCO)CC(O)(c1ccccc1)c1ccccc1`: the ED50 was determined as 80 mg/kg in the data set filed under Mus musculus [5] and 8 mg/kg in the data set on Mus musculus [6].

`COc1ccc(C(CN(CCO)CCO)c2ccccc2)cc1OC` (configuration not stated): the ED50 result with Mus musculus [7] and in the data set on Mus musculus [8] was “inactive” in each case.

Take `CN(C)CCCN1c2ccccc2CCc2ccccc21` [IMIPRAMINE]: the ED50 turned out to be 14.9 mg/kg with Mus musculus [9], 1.3 mg/kg in the data set listed under Mus musculus [5], 0.9 mg/kg with Mus musculus [6] and 20.3 mg/kg with Mus musculus [10].

Regarding `COc1ccc(C(CN)c2ccc(OC)cc2)cc1`, in the data set on Mus musculus [11], the ED50 was more than 10 mg/kg. Besides, the ED50 result in the data set with Mus musculus [12] was “inactive”.

Regarding `CNCC(c1ccccc1)c1ccccc1`, the ED50 in the data set on Mus musculus [9] was determined as 9 mg/kg; in the data set filed under Mus musculus [5] it was 5 mg/kg; in the data set with Mus musculus [6] it was 2.3 mg/kg; with Mus musculus [10], 8.2 mg/kg. This compound showed a median lethal dose (LD50) in [13] of 30 mg/kg.

Take `OCCN(CCO)C(Cc1ccccc1)c1ccccc1` (configuration not stated): the ED50 result in the data set with Mus musculus [1] and with Mus musculus [2] was “inactive” each time.

Take `CC(N)C(c1ccccc1)c1ccccc1` (configuration not stated): the ED50 in the data set listed under Mus musculus [5] stood at 3.5 mg/kg; in the data set with Mus musculus [6] it was 3.8 mg/kg.

On to `NCC(O)(c1ccccc1)c1ccccc1`, for which the ED50 in the data set with Mus musculus [9] worked out at 9.9 mg/kg; in the data set listed under Mus musculus [5] it was 9 mg/kg; in the data set with Mus musculus [6], 6 mg/kg; in the data set on Mus musculus [10], 8.1 mg/kg. The same compound came in with an LD50 in data set [14] of 100 mg/kg.

For `CNCC(c1ccccc1)c1ccc(OC)c(OC)c1` (configuration not stated), the figures for the ED50 in the data set filed under Mus musculus [5] and in the data set with Mus musculus [6] were more than 30 mg/kg and 11 mg/kg, respectively.

On to `CNCC(c1ccc(Cl)cc1)c1ccc(Cl)cc1`, for which the results for the ED50 with Mus musculus [15] and in the data set with Mus musculus [16] were 13 mg/kg and 14 mg/kg, respectively.

On to `OCCN(CCO)CC(c1ccccc1)c1ccccc1`, for which the ED50 in the data set on Mus musculus [9] worked out at 15.4 mg/kg; in the data set on Mus musculus [6] it was 2 mg/kg; with Mus musculus [10], 20.3 mg/kg. Further, the LD50 in [17] was determined as 300 mg/kg.

With `COc1ccc(C(CN)c2ccccc2)cc1OC` (configuration not stated), the ED50 entry in the data set on Mus musculus [1] and in the data set on Mus musculus [2] was “inactive” in each case.

As to `COc1ccc(C(CN(CCO)CCO)c2ccc(OC)c(OC)c2)cc1OC`, the ED50 result in the data set with Mus musculus [7] and in the data set on Mus musculus [8] was “inactive” each time.

In the case of `NCC(c1ccccc1)c1ccccc1`, the ED50 with Mus musculus [9] is more than 15 mg/kg; in the data set listed under Mus musculus [5] it was 1.8 mg/kg; in the data set on Mus musculus [6] it was 1.7 mg/kg; in the data set on Mus musculus [10], 10 mg/kg. In [13], this compound showed an LD50 of 30 mg/kg.

As for `CN(C)CC(c1ccccc1)c1ccccc1`, the ED50 came out at 3 mg/kg with Mus musculus [9], 9 mg/kg in the data set filed under Mus musculus [5], 2.5 mg/kg in the data set with Mus musculus [6] and 7 mg/kg in the data set on Mus musculus [10]. In data set [13], the LD50 worked out at 100 mg/kg.

As for `OCCN(CCO)CCC(c1ccccc1)c1ccccc1`, the figures for the ED50 in the data set filed under Mus musculus [5] and in the data set on Mus musculus [6] were 24 mg/kg and 20 mg/kg, respectively.

As for `CCNCCC(c1ccccc1)c1ccccc1`, the ED50 amounted to 15 mg/kg in the data set filed under Mus musculus [5] and 23 mg/kg with Mus musculus [6].

Regarding `c1ccc2c(c1)cc1n2CCCNC1` [AZEPINDOLE], the ED50 stood at 32 mg/kg in the data set on Mus musculus [9], 11 mg/kg in the data set listed under Mus musculus [5], 9 mg/kg in the data set with Mus musculus [6] and 46 mg/kg in the data set with Mus musculus [10]. For the same compound, in data set [18], the LD50 amounted to 100 mg/kg.

Turning to `CC(=O)OCCN(CCOC(C)=O)CC(c1ccccc1)c1ccccc1`, the ED50 in the data set listed under Mus musculus [5] came out at 23 mg/kg; in the data set on Mus musculus [6], 13 mg/kg.

Regarding `CCN(CCO)CCC(c1ccccc1)c1ccccc1`, the 50% effective dose (ED50) in the data set with Mus musculus [9] is 21.4 mg/kg; in the data set filed under Mus musculus [5], 10 mg/kg; with Mus musculus [6], 1.9 mg/kg; with Mus musculus [10], more than 25 mg/kg. In addition, the median lethal dose (LD50) in data set [17] is 300 mg/kg.

`COc1ccc(C(CN)c2ccc(OC)c(OC)c2)cc1OC`: the ED50 result in the data set with Mus musculus [7] and in the data set on Mus musculus [8] was “inactive” in each case.

With `COc1ccc(C(CN(C)C)c2ccccc2)cc1OC` (configuration not stated), it took a dose of 14 mg/kg to reach the 50% effect level with Mus musculus [6] (ED50). Moreover, the ED50 entry with Mus musculus [2] is “inactive”.

As for `NCC(c1ccc(Cl)cc1)c1ccc(Cl)cc1`, the ED50 entry in the data set on Mus musculus [3] and with Mus musculus [19] was “inactive” in each case.

Turning to `CC(O)CN(CC(C)O)CC(c1ccccc1)c1ccccc1` (configuration not stated), the ED50 with Mus musculus [20] was 6 mg/kg; in the data set with Mus musculus [21] it was 7 mg/kg; in the data set with Mus musculus [22] it was 11 mg/kg; with Mus musculus [23], 18 mg/kg.

`OCCN(CCO)CC(c1ccccc1)C1CCCCC1` (configuration not stated): the ED50 in the data set listed under Mus musculus [5] is approximately 50 mg/kg; with Mus musculus [6], 22 mg/kg.

Regarding `OCCN(CCO)CCc1ccccc1`, the ED50 with Mus musculus [9] was more than 50 mg/kg; in the data set listed under Mus musculus [5], 17 mg/kg; in the data set with Mus musculus [6] it was 12 mg/kg; with Mus musculus [10], more than 50 mg/kg. Further, in data set [24], the LD50 was determined as 1000 mg/kg.

Consider `COc1ccc(C(CN(CCO)CCO)c2ccc(OC)cc2)cc1`, for which the ED50 entry in the data set on Mus musculus [7] and with Mus musculus [8] was “inactive” throughout.

As for `CN(C)CC(c1ccc(Cl)cc1)c1ccc(Cl)cc1`, the ED50 in the data set filed under Mus musculus [5] was determined as 11 mg/kg; with Mus musculus [6], 16 mg/kg.
